Results as given in paper PMC6556873, “Rapid Covalent-Probe Discovery by Electrophile-Fragment Screening” (Journal of the American Chemical Society, 2019).
Read-outs that look alike come from different tables or passages of the source.

How the values were obtained:
in vitro [1] = test: in vitro; design: species or system HB2, HEK293; conditions: human, ccd841 cells
in vitro [2] = test: in vitro; design: species or system HB2, CCD841; conditions: human, hek293 cells
in vitro [3] = test: in vitro; design: species or system CCD841, HEK293; conditions: human, hb2 cells, read-out: HB-2 Cells Viability (%)
PCAF = target: T1, PCAF (Homo sapiens, UniProt Q92831); design: Intact protein LC/MS covalent labelling, fragments in pools of five, 200 uM each, 4 °C; conditions: 24 h, 4 °C, pool of five; 200 µM; covalent
T1 construct: gene KAT2B

OTUB2 (OTUB2A) = target: T2, OTUB2 (OTUB2A) (Homo sapiens, UniProt Q96DC9); design: Intact protein LC/MS covalent labelling, fragments in pools of five, 200 uM each, 4 °C; conditions: 24 h, 4 °C, pool of five; 200 µM; covalent
T2 construct: full length residues 1-234, E. coli BL21(DE3)-R3, His tag removed by TEV, construct 27312 Da
T2 sequence (Q96DC9 1-234): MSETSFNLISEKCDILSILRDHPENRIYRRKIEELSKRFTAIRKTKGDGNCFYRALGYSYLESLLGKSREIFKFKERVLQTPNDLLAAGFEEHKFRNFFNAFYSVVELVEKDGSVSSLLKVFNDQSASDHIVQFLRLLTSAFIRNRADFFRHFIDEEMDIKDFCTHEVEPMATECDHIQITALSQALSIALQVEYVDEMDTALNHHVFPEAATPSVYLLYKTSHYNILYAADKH

BSA = target: T3, BSA (Bos taurus, UniProt P02769); design: Intact protein LC/MS covalent labelling, fragments in pools of five, 200 uM each, 4 °C; conditions: 24 h, 4 °C, pool of five; 200 µM; covalent
T3 construct: gene ALB

NUDT7 = target: T4, NUDT7 (Homo sapiens, UniProt P0C024); design: Intact protein LC/MS covalent labelling, fragments in pools of five, 200 uM each, 4 °C; conditions: 24 h, 4 °C, pool of five; 200 µM; covalent
T4 construct: residues 14-235, E. coli, pNIC28-Bsa4, N-terminal His6 tag removed by TEV, construct 26672 Da

NNMT (hNNMT) = target: T5, NNMT (hNNMT) (Homo sapiens, UniProt P40261); design: Intact protein LC/MS covalent labelling, fragments in pools of five, 200 uM each, 4 °C; conditions: 24 h, 4 °C, pool of five; 200 µM; covalent
T5 construct: wild type, N-terminal His6 tag kept (no cleavage described), E. coli, construct 31248 Da
T5 sequence (P40261 1-264): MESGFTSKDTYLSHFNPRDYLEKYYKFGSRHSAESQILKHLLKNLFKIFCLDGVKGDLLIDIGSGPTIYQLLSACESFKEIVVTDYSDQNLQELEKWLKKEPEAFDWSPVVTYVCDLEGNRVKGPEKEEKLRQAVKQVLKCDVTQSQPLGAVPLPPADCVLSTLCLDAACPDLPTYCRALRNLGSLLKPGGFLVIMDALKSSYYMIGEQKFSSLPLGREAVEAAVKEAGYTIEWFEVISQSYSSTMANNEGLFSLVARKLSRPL

T3 sequence (P02769 whole entry, the tested form may be a part): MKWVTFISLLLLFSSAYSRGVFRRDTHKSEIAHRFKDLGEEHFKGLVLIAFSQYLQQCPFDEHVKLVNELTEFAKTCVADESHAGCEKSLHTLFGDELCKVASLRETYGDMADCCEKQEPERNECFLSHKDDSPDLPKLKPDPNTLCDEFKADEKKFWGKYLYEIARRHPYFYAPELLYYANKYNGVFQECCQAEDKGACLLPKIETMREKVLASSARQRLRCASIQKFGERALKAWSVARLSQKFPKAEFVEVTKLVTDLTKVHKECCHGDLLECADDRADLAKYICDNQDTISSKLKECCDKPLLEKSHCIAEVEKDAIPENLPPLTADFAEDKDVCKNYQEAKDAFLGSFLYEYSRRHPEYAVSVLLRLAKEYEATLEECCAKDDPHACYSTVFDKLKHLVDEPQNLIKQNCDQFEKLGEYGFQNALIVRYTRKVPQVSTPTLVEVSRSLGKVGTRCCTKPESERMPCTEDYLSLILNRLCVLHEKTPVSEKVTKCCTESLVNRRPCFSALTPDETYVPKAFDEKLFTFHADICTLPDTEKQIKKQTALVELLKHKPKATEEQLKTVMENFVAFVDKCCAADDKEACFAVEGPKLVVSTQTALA
T1 sequence (Q92831 whole entry, the tested form may be a part): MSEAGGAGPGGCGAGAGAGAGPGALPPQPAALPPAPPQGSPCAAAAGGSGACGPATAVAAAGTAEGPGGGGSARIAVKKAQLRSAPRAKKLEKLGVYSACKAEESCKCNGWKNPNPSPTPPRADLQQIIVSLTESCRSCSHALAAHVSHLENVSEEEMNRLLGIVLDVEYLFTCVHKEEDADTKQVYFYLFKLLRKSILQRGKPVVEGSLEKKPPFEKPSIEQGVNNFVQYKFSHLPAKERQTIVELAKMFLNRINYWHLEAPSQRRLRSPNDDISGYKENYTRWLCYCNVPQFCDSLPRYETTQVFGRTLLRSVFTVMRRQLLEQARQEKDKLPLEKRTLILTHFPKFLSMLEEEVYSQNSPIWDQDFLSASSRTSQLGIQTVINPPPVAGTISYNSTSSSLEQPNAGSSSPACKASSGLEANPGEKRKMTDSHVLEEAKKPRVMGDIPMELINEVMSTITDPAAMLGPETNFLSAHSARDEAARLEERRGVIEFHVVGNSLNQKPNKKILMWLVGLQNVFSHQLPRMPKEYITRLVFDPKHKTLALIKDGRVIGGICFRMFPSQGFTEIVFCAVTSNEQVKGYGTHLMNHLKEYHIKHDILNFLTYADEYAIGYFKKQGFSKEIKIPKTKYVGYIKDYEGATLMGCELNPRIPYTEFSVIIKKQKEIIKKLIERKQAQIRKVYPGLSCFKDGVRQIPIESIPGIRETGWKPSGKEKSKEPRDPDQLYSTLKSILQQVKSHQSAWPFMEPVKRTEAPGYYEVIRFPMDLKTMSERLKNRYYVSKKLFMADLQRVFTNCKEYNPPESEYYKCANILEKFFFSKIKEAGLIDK
T4 sequence (P0C024 14-235): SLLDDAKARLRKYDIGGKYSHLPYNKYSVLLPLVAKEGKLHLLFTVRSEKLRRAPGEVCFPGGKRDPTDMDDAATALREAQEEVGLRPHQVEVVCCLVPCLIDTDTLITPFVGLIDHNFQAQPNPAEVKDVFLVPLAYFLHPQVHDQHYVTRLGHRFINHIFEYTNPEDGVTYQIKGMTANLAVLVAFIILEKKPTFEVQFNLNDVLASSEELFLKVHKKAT

Structure (SMILES) | PCAF (PCAF) | OTUB2 (OTUB2 (OTUB2A)) | BSA (BSA) | NUDT7 (NUDT7) | NNMT (NNMT (hNNMT)) | viability at 48 h, 10 µM (in vitro [1]) [%] | viability at 48 h, 10 µM (in vitro [2]) [%] | viability at 48 h, 10 µM (in vitro [3]) [%]
CN(Cc1ccc(F)cc1)C(=O)CCl [PCM-0102939] | 0 | 0.1 | 0 | 0 | 0 | 69.2 | 42.7 | 34.8
CN(Cc1ccc2c(c1)OCCO2)C(=O)CCl [PCM-0102958] | 0 | 0.09 | 0 | 0.27 | 0 | 81 | 52 | 74.4
CC(=O)NNC(=O)CCl [PCM-0102310] | 0 | 0.18 | 0 | 0 | 0 | 90.3 | 84.1 | 96.1
O=C(CCl)Nc1nc2c(s1)CCC2 [PCM-0102457] | 0 | 0 | 0 | 0.37 | 0.59 | 61 | 43.3 | 42.3
CCc1sc(C(=O)NNC(=O)CCl)cc1C [PCM-0103009] | 0 | 1 | 0 | 0 | 0 | 68.3 | 73.2 | 70.4
C=CC(=O)NNC(=O)c1ccccc1 [PCM-0102541] | 0 | 0 | 0 | 0 | 0 | 112 | 106 | 106
Cl.O=C(CCl)Nc1ccc(Cl)cn1 [PCM-0103036] | 0 | 0 | 0.19 | 0 | 0.19 | 96.4 | 113 | 98.5
C=CC(=O)NCc1cc(F)c(C(F)(F)F)cc1F [PCM-0103078] | 0 | 0 | 0 | 0 | 0.2 | 96.9 | 88.4 | 101
CC(NC(=O)CCl)c1ccc(Br)cc1 (stereo not shown) [PCM-0102374] | 0 | 0.34 | 0 | 0.23 | 0.55 | 73.1 | 50 | 63.8
C=CC(=O)N1CCC(c2nc3cccc(C)c3o2)CC1 [PCM-0102530] | 0 | 0 | – | 0 | 0 | 101 | 94 | 108
O=C(CCl)Nc1ccc2c(c1)NC(=O)CO2 [PCM-0102890] | 0 | 0.32 | 0 | 0.08 | 0.22 | – | – | –
C=CC(=O)N1CCCC1c1cccc2c1OCCO2 (stereo not shown) [PCM-0102489] | 0 | 0 | – | 0 | 0 | 99.1 | 89.9 | 96.3
C=CC(=O)Nc1cccc(F)c1 [PCM-0102922] | 0 | 0 | 0.19 | 0 | 0 | – | – | –
C=CC(=O)Nc1cccc(OC)c1 [PCM-0102800] | 0 | 0 | 0 | 0 | 0 | – | – | –
C=CC(=O)N1CCC(c2nc(C(F)(F)F)c[nH]2)CC1 [PCM-0102513] | 0 | – | 0 | 0 | 0.22 | 99.4 | 111 | 95.7
N#Cc1ccc(CNC(=O)CCl)cc1 [PCM-0102946] | 0 | 0.35 | – | 0 | 0.23 | 74.8 | 88.1 | 85
Cc1ccccc1CNC(=O)CCl [PCM-0102253] | 0 | – | 0 | 0 | 0.2 | 86.6 | 93.4 | 99.6

Now from value to molecule, other results behind:

PCAF (PCAF) | OTUB2 (OTUB2 (OTUB2A)) | BSA (BSA) | NUDT7 (NUDT7) | NNMT (NNMT (hNNMT)) | Structure (SMILES) | viability at 48 h, 10 µM (in vitro [1]) [%] | viability at 48 h, 10 µM (in vitro [2]) [%] | viability at 48 h, 10 µM (in vitro [3]) [%]
0 | 0 | 0 | 0 | 0 | O=C(CCl)N1CCCCCC1 [PCM-0102751] | 85.6 | 73.7 | 99.5
0 | 0.05 | – | 0.22 | 0 | O=C1CN(C(=O)CCl)C2(CCCCC2)C(=O)N1 [PCM-0102139] | 95.8 | 96.3 | 98.9
0 | 0 | 0 | 0 | 0 | Cc1ccc(C(=O)N2CCN(C(=O)CCl)CC2)cc1 [PCM-0102962] | 75.3 | 15.6 | 30.1
0 | 0 | 0 | 0 | 0 | Cc1ccccc1CN1CCN(C(=O)CCl)CC1.Cl [PCM-0102876] | 69.2 | 38.1 | 31.1
0 | – | 0 | 0 | 0 | O=C(CCl)NC1CCCCCCC1 [PCM-0102318] | 92.1 | 66.1 | 86.6
0 | 0 | – | 0.07 | 0 | O=C(CCl)N1CCN(C(=O)C2CC2)CC1 [PCM-0102970] | 72.5 | 66.6 | 83.8
0 | – | 0 | 0 | 0.22 | C=CC(=O)NC1CCCN(C(=O)OC)C1 (stereo not shown) [PCM-0102526] | 106 | 90.7 | 101
0 | 0.18 | 0 | 0.18 | 0.51 | O=C(CCl)N1CCC(Cc2ccccc2)CC1 [PCM-0102492] | – | – | –
0 | – | 0 | 0 | 0 | N#CC1(NC(=O)CCl)CCCC1 [PCM-0102136] | 61.1 | 44 | 70
0 | – | 0 | 0.13 | 0.21 | CC1CCC(N(C(=O)CCl)C2CC2)CC1 (stereo not shown) [PCM-0102792] | 8.8 | 6.8 | 11.4
